The values that follow come from US11530216B2, “Deuterated colony stimulating factor-1 receptor (CSF-1R) inhibitors” (Genzyme Corporation, priority 2020, dated 2022).

As a reminder, the IC50 is the concentration that inhibits the measured activity by half.

Series [1] deals with MCP-1 production in primary murine microglial cells. The experiment in a line: MCP-1 ELISA, primary mouse microglia after CSF-1 stimulation. The format is cell-based. The settings on record: Mus musculus, Microglia, 24 h, read-out: IC50, MCP-1 production. On the procedure:
Primary mouse microglia were suspended at a concentration of 5×10^5 cells/mL and 100 μL of this cell suspension was added to the inner 60 wells of three 96-well plates. Microglia cells were allowed to rest overnight at 37° C., 5% CO2. […] Cells were then stimulated with 100 ng/mL recombinant mouse CSF-1 for 24 hours. After stimulation, the culture supernatant was removed from each well and aliquoted into two different 96-well plates for subsequent ELISA assays. Plates were fixed with 4% PFA for future immunocytochemistry analysis.
(In general: In an ELISA, binding on a coated surface is turned into a signal by an enzyme label.)

For a further series, the system named is primary murine microglia. The series is described as follows: Immunostaining of primary microglia (Iba1+ area, DAPI+ nuclei) after CSF-1 stimulation. The class given is cell-based, mouse. The settings on record: Mus musculus, Microglia. As to the method: Primary mouse microglia were suspended at a concentration of 5×10^5 cells/mL and 100 μL of this cell suspension was added to the inner 60 wells of three 96-well plates. Microglia cells were allowed to rest overnight at 37° C., 5% CO2. […] Cells were then stimulated with 100 ng/mL recombinant mouse CSF-1 for 24 hours. After stimulation, the culture supernatant was removed from each well and aliquoted into two different 96-well plates for subsequent ELISA assays. Plates were fixed with 4% PFA for future immunocytochemistry analysis. Following the stimulation, cells were fixed with 4% PFA for 20 minutes at room temperature. Cells were then rinsed in PBS, washed 3×5 minutes in 0.2% PBT (0.2% Triton X-100 in PBS) and blocked with 10% donkey serum/0.2% PBT for 1 hour at room temperature. […] After staining, plates were imaged on the IN Cell Analyzer 2200 with 9 fields of view acquired per well. […] A one-way ANOVA was used to determine the statistical significance of differences between samples. […] Following a microglial stimulation, immunocytochemistry was completed with Iba1, Ki67, and DAPI to determine microglial morphology, proliferative state, and number. InCell imaging microsope and analysis software was used to quantify Iba1^+ area, and the number of DAPI^+ nuclei within the cultures.

Series [2] has as its system primary mouse microglia (wild type, SOD1). The series is described as follows: CellTiter Glo 2.0 viability assay, wild-type and SOD1 primary microglia. The format is cell-based. To be noted: wild type and SOD1 cells. On the procedure: The impact of a deuterated CSF-1R inhibitor of this disclosure on cytokine/chemokine production following CSF-1 or LPS stimulation in wild-type versus SOD1 mutant primary microglial cells was examined in the following experiments.
Methods Treatment and Stimulation of Primary Microglial Cells
Primary mouse microglia were suspended at a concentration of 5×10^5 cells/mL and 100 μL of this cell suspension was added to each well of a 96-well plate. Microglia cells were allowed to rest overnight at 37° C., 5% CO2. […] Cells were then stimulated with 100 ng/mL recombinant mouse M-CSF for 30 minutes or 10 ng/mL lipopolysaccharide for 24 hours. After stimulation, the culture supernatant was removed from each well and aliquoted into two different 96-well plates for subsequent ELISA assays.
Cell viability was determined using Promega's Cell Titer Glo Luminescent Cell Viability Assay. […] 100 μL was transferred from each well to a white plate and luminescence was read immediately on the FlexStation3 plate reader.
Primary murine microglia were plated at 50,000 cells per well and rested overnight. […] Cell viability was assessed after 24 hours utilizing Promega's Cell Titer Glo Assay Kit. Both CSF-1 and LPS stimulation induced a slight increase in the cell viability readout versus unstimulated cells (FIGS. 8A-8B and FIGS. 9A-9B).
On the technique in general: ATP-based viability assays read luminescence as a measure of living cells.

The test system of series [3] is iCell microglia (human iPSC derived microglia). The series is described as follows: CellTiter Glo 2.0 viability assay, iCell human microglia, CSF1 stimulation. The class given is cell-based. To be noted: 1.5625-200 nM, CSF1 100 ng/mL 24 hours. As to the method: (§1) iCell microglia (human iPSC derived microglia) were acquired from FujiFilm (cat #C1110, lot #105458). These cells were thawed and maintained in iCell Microglia Complete Media according the manufacture instructions. For this assay, iCell microglia were resuspended at a concentration of 5×10^5 cells/mL and 100 μL of this cell suspension was added to the inner 60 wells of a 96-well plate. iCell microglia were allowed to rest overnight at 37° C., 5% CO2. The following evening, the media was removed and replaced with Neurobasal Media (Gibco, cat #21103049) containing B27 supplement (Gibco, cat #17504044). Again, cells were allowed to rest overnight at 37° C., 5% CO2. […] Cells were then stimulated with 100 ng/mL recombinant human CSF1 for 24 hours. After stimulation, the culture supernatant was removed from each well and aliquoted into two different 96-well plates for subsequent ELISA assays.
Cell viability was determined using the CellTiter Glo 2.0 Luminescent Cell Viability Assay (Promega, cat #G9242). […] 100 μL was transferred from each well to a white plate and luminescence was read immediately on the FlexStation3 Multi-Mode Microplate Reader (Molecular Devices, cat #Flex3) with SoftMax Pro Software.
(§2) iCell microglia (human iPSC derived microglia) were plated at 50,000 cells per well and rested overnight. […] Cell viability was assessed utilizing Promega's Cell Titer Glo Assay Kit. […]

Series [4] has as its system MCP-1 production in iCell microglia (human iPSC derived microglia). The series is described as follows: MCP-1 ELISA, iCell human microglia, CSF1 stimulation. To be noted: 1.5625-200 nM, CSF1 100 ng/mL 24 hours. The format is cell-based. As to the method: as §1
Culture supernatants were assayed with the Quantikine Human MCP-1 ELISA kit (R&D Systems, cat #SCP00). […] After incubation, fifty microliters of the acid stop solution was added to each well, and the plate was read on the FlexStation3 Multi-Mode Microplate Reader (Molecular Devices, cat #Flex3) with SoftMax Pro Software at 450 nm.
as §2

Entries after “also recorded” stand apart in the source; their conditions may differ. Where two headings read alike, the source gives them in different places.

Regarding `[2H]c1nc2cccnc2n1Cc1cc(OC)c2c(c1)O[C@@H](C)[C@H](c1ccc(OC)nc1)O2` [Compound 6, 3-(((2S,3S)-8-methoxy-2-(6-methoxypyridin-3-yl)-3-methyl-2,3-dihydrobenzo[b][1,4]dioxin-6-yl)methyl)-3H-imidazo[4,5-b]pyridine-2-d], the IC50 in series [1] came to 23.2 nM; with primary murine microglia (read-out: IC50 for DAPI (DAPI+ cell number)), 248 nM; with primary murine microglia (read-out: IC50 for Iba1 (Iba1+ area)), 84.6 nM. Also, the cell viability result in series [2] (CSF-1 stimulation, 50, 100, 200 nM) is “no toxic effect on microglia at the concentrations assessed; also recorded: slightly reduced the CSF-1-induced increase in cell viability”; in series [2] (LPS stimulation, 50, 100, 200 nM) it was “no deleterious effect on cell viability”. The human microglia viability result in series [3] is given as “did not impact human microglia viability at the concentrations assessed”. In addition, the MCP1 production entry in series [4] is “significantly reduced MCP1 production in a concentration dependent manner”.
